The text below walks through data of paper PMC4286194 (Biochemical Journal, 2015).

The subject of assay [1] is RAW264.7 macrophages expressing HA-SIK2[T96Q]. The assay is described as follows: IL-10 and Nurr77 mRNA in macrophages expressing drug-resistant SIK2. The conditions noted are these: cells expressing drug-resistant SIK2[T96Q]; drug 1 h, LPS 1 h. Type of assay: cell-based. Here is the method: Primary macrophages were generated by differentiating bone marrow from 6- to 12-week-old C57BL/6 mice for 7 days in Dulbecco's modified Eagle's medium (DMEM) supplemented with 5 ng/ml recombinant M-CSF (R&D systems), 2 mM glutamine, 10% FBS, penicillin and streptomycin. Bone-marrow-derived macrophages were differentiated on non-tissue-culture-treated plastic, harvested and replated at a density of 100000 cells/cm^2 per 0.1 ml on tissue culture-treated plastic in fresh medium before stimulation on day 8. RAW264.7 cells were cultured in DMEM containing 10% FBS, 2 mM glutamine and penicillin and streptomycin. […] Cells were treated for 1 h with or without inhibitors and then stimulated for up to 24 h with either 1 μg/ml Pam3CSK4 or 100 ng/ml LPS.
mRNA was extracted from cells using the MicroElute Total RNA kit following the manufacturers’ instructions (Omega Bio-Tek). cDNA was generated from 0.5 μg of total RNA using the iScript cDNA synthesis kit and quantified by quantitative real-time PCR (qPCR) using the SsoFast EvaGreen Supermix on a CFX384 real-time system (Bio-Rad Laboratories). The relative expression of each gene was calculated from CT values using the Pfaffl method and was normalized against the mRNA levels of housekeeping genes including 18S RNA and GAPDH.

In assay [2] the target is PKC gamma (Homo sapiens, UniProt P05129). The assay is described as follows: Kinase profiling. Type of assay: biochemical.
The target of assay [3] is T1, LKB1 (Homo sapiens, UniProt Q15831).
T1 sequence (Q15831 1-433): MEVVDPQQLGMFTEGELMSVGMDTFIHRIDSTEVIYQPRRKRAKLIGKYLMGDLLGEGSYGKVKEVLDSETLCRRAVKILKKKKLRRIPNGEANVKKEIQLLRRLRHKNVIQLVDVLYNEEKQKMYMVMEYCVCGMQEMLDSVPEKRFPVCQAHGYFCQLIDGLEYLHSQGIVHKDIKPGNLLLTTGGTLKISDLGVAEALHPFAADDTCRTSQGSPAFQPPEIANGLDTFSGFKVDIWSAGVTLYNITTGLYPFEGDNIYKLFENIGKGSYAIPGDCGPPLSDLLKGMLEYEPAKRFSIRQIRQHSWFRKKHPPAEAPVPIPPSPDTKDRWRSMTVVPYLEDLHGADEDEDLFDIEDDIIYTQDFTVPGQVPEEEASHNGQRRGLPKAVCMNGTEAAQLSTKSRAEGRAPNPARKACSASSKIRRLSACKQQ
T1 sequence (Q7RTN6 1-431 partner): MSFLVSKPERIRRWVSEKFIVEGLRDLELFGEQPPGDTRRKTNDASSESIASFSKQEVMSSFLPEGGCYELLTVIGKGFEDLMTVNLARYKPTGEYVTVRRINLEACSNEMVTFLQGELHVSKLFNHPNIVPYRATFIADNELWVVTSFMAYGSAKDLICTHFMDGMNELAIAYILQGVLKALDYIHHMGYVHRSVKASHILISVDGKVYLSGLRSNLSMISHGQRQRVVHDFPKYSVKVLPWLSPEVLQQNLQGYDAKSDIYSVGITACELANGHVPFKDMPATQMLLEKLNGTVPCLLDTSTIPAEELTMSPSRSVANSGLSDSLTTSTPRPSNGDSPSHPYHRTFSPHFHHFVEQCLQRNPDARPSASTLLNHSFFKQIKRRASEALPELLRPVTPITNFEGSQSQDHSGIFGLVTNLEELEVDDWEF
T1 sequence (Q9Y376 1-341 partner): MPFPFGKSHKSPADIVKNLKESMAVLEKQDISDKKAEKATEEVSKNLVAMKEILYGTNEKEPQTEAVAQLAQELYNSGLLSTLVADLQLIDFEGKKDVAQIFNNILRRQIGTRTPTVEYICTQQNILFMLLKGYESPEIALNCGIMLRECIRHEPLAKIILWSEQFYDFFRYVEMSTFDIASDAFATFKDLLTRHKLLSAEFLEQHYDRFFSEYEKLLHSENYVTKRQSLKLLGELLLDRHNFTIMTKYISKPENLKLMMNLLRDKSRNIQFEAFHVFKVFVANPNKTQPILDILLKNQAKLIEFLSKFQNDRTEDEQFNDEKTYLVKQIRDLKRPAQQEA
The assay is described as follows: Kinase profiling. Type of assay: biochemical.

The target of assay [4] is T2, GCK (Homo sapiens, UniProt Q12851).
T2 sequence (Q12851 1-820): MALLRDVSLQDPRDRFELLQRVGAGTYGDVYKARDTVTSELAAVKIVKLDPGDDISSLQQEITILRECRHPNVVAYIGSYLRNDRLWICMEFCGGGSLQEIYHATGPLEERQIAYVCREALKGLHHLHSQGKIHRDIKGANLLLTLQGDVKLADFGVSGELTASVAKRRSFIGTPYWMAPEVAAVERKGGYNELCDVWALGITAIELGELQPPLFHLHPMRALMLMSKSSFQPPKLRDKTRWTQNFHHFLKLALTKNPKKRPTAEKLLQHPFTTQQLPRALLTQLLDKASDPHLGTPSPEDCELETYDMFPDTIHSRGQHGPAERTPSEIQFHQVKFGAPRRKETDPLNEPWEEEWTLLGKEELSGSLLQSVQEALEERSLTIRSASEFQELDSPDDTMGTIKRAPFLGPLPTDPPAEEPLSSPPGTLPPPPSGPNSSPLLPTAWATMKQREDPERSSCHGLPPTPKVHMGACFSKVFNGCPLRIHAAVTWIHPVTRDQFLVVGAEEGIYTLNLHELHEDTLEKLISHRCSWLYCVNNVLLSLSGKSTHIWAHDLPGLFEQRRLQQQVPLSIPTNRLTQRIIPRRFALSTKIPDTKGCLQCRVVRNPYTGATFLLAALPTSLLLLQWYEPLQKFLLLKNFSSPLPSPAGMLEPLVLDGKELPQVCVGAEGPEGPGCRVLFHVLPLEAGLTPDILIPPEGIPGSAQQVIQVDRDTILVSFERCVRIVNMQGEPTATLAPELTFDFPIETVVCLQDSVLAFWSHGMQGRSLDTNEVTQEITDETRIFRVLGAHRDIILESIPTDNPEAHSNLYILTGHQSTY
Put plainly: Kinase profiling. Type of assay: biochemical.

Regarding `COc1cc(Nc2c(C#N)cnc3cc(OCCCN4CCN(C)CC4)c(OC)cc23)c(Cl)cc1Cl` [Bosutinib, bosutinib], the “LPS-stimulated CREB-dependent gene transcription including IL-10 and Nurr77” value in assay [1] is listed as “little effect”. For the same molecule, the remaining activity – broadly, the signal under treatment as a percentage of the control signal – at 0.1 µM in assay [2] turned out to be 88 ± 6%; in assay [3], 84 ± 13%; in assay [4] it was 9 ± 2%. Besides, the remaining activity at 1 µM in assay [2] was 102 ± 5%; in assay [3] it was 104 ± 15%; in assay [4], 4%.

Consider `Cc1nc(Nc2ncc(C(=O)Nc3c(C)cccc3Cl)s2)cc(N2CCN(CCO)CC2)n1` [Dasatinib], for which the “LPS-stimulated CREB-dependent gene transcription including IL-10 and Nurr77” value in assay [1] is listed as “little effect”. Also, the remaining activity at 0.1 µM in assay [2] is 107 ± 22%; in assay [3] it was 96 ± 18%; in assay [4] it was 95 ± 7%. For the same molecule, the figures for the remaining activity at 1 µM in assay [2], in assay [3] and in assay [4] were 114 ± 22%, 100 ± 14% and 56 ± 8%, respectively.
